From US11123340B2, “Small-molecule UT-A-selective urea transport inhibitors” (The Regents of the University of California, priority 2014, dated 2021)

Columns and labels:
[1] = tested on: rats; assay: Diuretic studies in rats; type: in vivo, rat; conditions: for urine osmolality / urine volume: control, hydrated rats
Description: Compound effects on urine output, osmolality and urea concentration were investigated in two conditions. Rats were placed in metabolic cages with water and food available ad libitum and spontaneously voided urine was collected for 3 h. Rats were then injected intravenously with 20 mg/kg UTAinh-E02 or UTAinh-F11 in formulations listed above (or vehicle alone), and returned to the metabolic cages without access to water, but free access to food. Spontaneously voided urine was collected every 3 h for a 6-h period. In some experiments, rats were administered dDAVP (4 μg/kg, IP) just before compound (or vehicle) injection and 3 h later. […] Urine osmolality was measured in water-diluted urine samples by freezing-point osmometry (Micro-osmometer; Precision Systems, Natick, Mass.). Urea concentration was determined by a colorimetric enzymatic assay as described above.
Diuretic efficacy was tested in rats under two different conditions. Inhibitor effects on maximum urinary concentrating ability was studied in rats administered the V2-selective agonist dDAVP at 4 μg/kg every 3 hours. Inhibitors were administered intravenously at 20 mg/kg as done in the pharmacokinetics experiments above. […] Each inhibitor produced a marked increase in volume and reduction in osmolality in urine collected over 0-3 h.
In a separate set of studies UTAinh-E02 was tested in control, hydrated rats.

[2] = Inhibitor permeability across MDCK cell monolayers (LC/MS); type: in vitro ADME, canine; conditions: dog; MDCK monolayers on porous filters, 20 μM; read-out: transepithelial permeability coefficient
Description: UT-A1 expressing MDCK cells were grown on 12-mm diameter collagen-coated Transwell inserts (0.4 μm pore size; Costar, Costar, N.Y.) to form tight monolayers (resistance>500 Ωcm^2), as described (see, e.g., Levin et al. (2007) FASEB J. 21, 551-563). Urea flux in the basolateral-to-apical direction was measured in response to a 15 mM urea gradient in which PBS containing forskolin (10 μM), with or without UT-A1 inhibitor and 0.7 mM phloretin, was added to both the apical-facing (0.2 mL) and basal-facing (2 mL) surfaces. After 30 min the basal-facing solution was replaced by PBS containing test compound+15 mM urea. Apical fluid samples (5 μL) were collected at specified times for enzymatic assay of urea (QUANTICHROME Urea Assay Kit; BioAssay Systems, Hayward, Calif.). To measure inhibitor permeability across MDCK cell layers, compounds (20 μM) were added on the basal-facing surface and fluid samples (20 μL) from the apical-facing surface were collected at different time points and analyzed by LC/MS.
To further evaluate the potential site of inhibitor action, the kinetics of UT-A1 inhibition was measured by assay of UT-A1 inhibition at different times after compound addition. […] To assess inhibitor membrane permeability transport of UTAinh-E02 and UTAinh-F11 across MDCK monolayers grown on porous filters by LC/MS was measured. Transport of UTAinh-F11 was much faster than that of UTAinh-E02 (FIG. 3C, right lower panel), with computed transepithelial permeability coefficients of […] and 1.1×10^−5 cm/s, respectively. From surface-to-volume considerations, the equilibration times were computed of UTAinh-E02 and UTAinh-F11 to be 250 and 14 s, respectively, in MDCK cells, which are consistent with intracellular sites of action of both inhibitors.

| Papp B→A at 20 μM [2] [×10⁻⁶ cm/s] | Compound | urine osmolality ([1]; 0-3 h) | urine volume ([1]; 0-3 h) | urine osmolality ([1]; 3-6 h collection) | urine volume ([1]; 3-6 h collection) | ratio of urea vs. non-urea solutes in urine ([1]; dDAVP rats, after inhibitor treatment) |
| --- | --- | --- | --- | --- | --- | --- |
|  | CC(=O)Nc1ccc(-c2csc(-c3c[nH]c4ccccc34)n2)cc1 [UTA1inh-E02, N-(4-(2-(1H-indol-3-yl)thiazol-4-yl)phenyl)acetamide] | reduced | significantly increased | returned to near baseline | returned to near baseline | increased |
| 11 | COc1ccc(C)cc1S(=O)(=O)Nc1ccc(Cl)c(N2CCCS2(=O)=O)c1 [UTA1inh-F11, N-[4-Chloro-3-(1,1-dioxido-1,2-thiazolidin-2-yl)phenyl]-2-methoxy-5-methylbenzene-sulfonamide] |  |  |  |  |  |
